Data set [1] has as its target T1, human PPARgamma-ligand binding domain (LBD) (Homo sapiens, UniProt P37231).
T1 construct: codes for the amino acids 205-505 of the human PPARgamma2 transcription factor; made in house; host or cells: E. coli BL21(DE3), vector pGEX4T-1
T1 sequence (P37231 205-505): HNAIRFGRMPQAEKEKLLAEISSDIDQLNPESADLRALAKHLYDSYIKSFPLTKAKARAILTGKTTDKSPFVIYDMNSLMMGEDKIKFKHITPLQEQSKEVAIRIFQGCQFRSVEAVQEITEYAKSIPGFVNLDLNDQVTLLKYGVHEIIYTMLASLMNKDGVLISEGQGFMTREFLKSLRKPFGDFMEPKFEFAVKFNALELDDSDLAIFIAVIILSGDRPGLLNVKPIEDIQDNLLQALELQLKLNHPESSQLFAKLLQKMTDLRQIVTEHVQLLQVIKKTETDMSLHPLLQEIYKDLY
Briefly: AlphaScreen: recruiting of CBP LXXLL peptide by GST-PPARgamma-LBD. The following applies: for direct activation of the PPARgamma-LBD / recruiting of the LXXLL peptide: concentrations of up to 50 μM. Type of data set: biochemical. As for the experimental part:
Protein containing the human PPARgamma-ligand binding domain (LBD) is prepared as a GST fusion protein in E. coli and purified by affinity chromatography. […] The fusion protein is expressed in the E. coli strain BL21(DE3) recommended for pGEX vectors after induction with 0.2 mM IPTG for 4 hours at 25° C. The bacteria are pelleted after the induction and frozen in batches in PBS, pH 7.4. After opening up in a French Press, the dissolved GST-PPARgamma-LBD-fusion protein is purified using a GSTrap column (Pharmacia). Elution is carried out by the addition of 20 mM reduced glutathione. The GST-PPARgamma-LBD-protein fractions are desalinated using a HiTrap desalting column (Pharmacia) and the protein concentration is determined using a standard assay.
The assay buffer consists of 25 mM Hepes pH7.4, 100 mM NaCl, 1 mM DTT, 0.1% Tween-20, and 0.1% BSA. […] The final DMSO concentration in the assay is 1% (v/v). A 1% DMSO solution is used as the background control (NSB). The measurement is done using a Packard fusion measuring device.
Background: In Alpha technology, singlet oxygen from a donor bead excites a nearby acceptor bead.

In data set [2] the target is T2, human PPARgamma-ligand binding domain (LBD) (Homo sapiens, UniProt P37231).
T2 sequence (P37231 205-505): T1 sequence (P37231 205-505)
T2 sequence (P19793 220-461 partner limits assumed): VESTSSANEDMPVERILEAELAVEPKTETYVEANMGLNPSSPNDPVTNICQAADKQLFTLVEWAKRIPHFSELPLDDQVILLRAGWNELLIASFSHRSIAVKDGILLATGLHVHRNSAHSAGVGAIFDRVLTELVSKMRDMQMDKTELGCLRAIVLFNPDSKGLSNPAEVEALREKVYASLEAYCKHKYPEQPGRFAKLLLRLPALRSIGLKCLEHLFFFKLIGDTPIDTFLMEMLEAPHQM
As to the kind of experiment: SPA assay: displacement of 3H-labeled rosiglitazone from PPARgamma-LBD. The following applies: for displacement of the radioactive rosiglitazone from the binding pocket: very large excesses of test substance; for MW (SPA signal, bound 3H-rosiglitazone): NSB 217, Bmax 911. Here is the method: Protein containing the human PPARgamma-ligand binding domain (LBD) is prepared as a GST fusion protein in E. coli and purified by affinity chromatography. To do this, a DNA section which codes for the amino acids 205-505 of the human PPARgamma2 transcription factor (cf. Genbank entry U79012) is subcloned via the additionally inserted restriction cutting sites BamH I and Xho I into the expression vector pGEX4T-I (Amersham) and the sequence of the section is monitored. […] The bacteria are pelleted after the induction and frozen in batches in PBS, pH 7.4. After opening up in a French Press, the dissolved GST-PPARgamma-LBD-fusion protein is purified using a GSTrap column (Pharmacia). Elution is carried out by the addition of 20 mM reduced glutathione. The GST-PPARgamma-LBD-protein fractions are desalinated using a HiTrap desalting column (Pharmacia) and the protein concentration is determined using a standard assay. Protein containing the human RXRalpha ligand binding domain (LBD) is prepared as a His tag fusion protein in E. coli and purified by affinity chromatography. To do this, a DNA section which codes for the amino acids 220-461 of the human RXRalpha transcription factor (cf. Genbank entry NM_002957, nt 729-1457) is subcloned via the additionally introduced restriction cutting sites BamH I and Not I into the expression vector pET28c (Novagen) and the sequence of the section is monitored. The fusion protein is expressed in the E. […] The bacteria are pelleted after the expression and frozen in batches in PBS, pH 7.4. After opening up in a French Press, the dissolved His-RXRalpha-LBD-fusion protein is purified using a HiTrap chelating column (Pharmacia). Elution is carried out using a 500 mM imidazole step. The His-RXRalpha-LBD protein fractions are desalinated using a HiTrap desalting column (Pharmacia) and the protein concentration is determined using a standard assay. A description of the SPA assay format can be found in R. Mukherjee et al., J Steroid Biochem Mol Biol (2002) 81:217-225.
On the technique in general: Loss of bound radioactivity is the signal in a displacement assay; it reports binding, not function.

Data set [3] concerns the target T3, fusion protein of ligand binding domain of human PPARgamma2 transcription factor and yeast GAL4 DNA binding domain (Homo sapiens, UniProt P37231).
T3 construct: codes for amino acids 205-505 of the human PPARgamma2 transcription factor; expressed in transfected cells
T3 sequence (P37231 205-505): T1 sequence (P37231 205-505)
As to the kind of experiment: Luciferase activity in stably transformed PPARgamma reporter cell line (CHO-K1 clone 11). Type of data set: cell-based.
Procedure: After 24 hours, the medium is changed for one without any added G418. The test substances are brought to 100 times the desired concentration with a suitable solvent, e.g., DMSO, and diluted 1:100 with the medium placed in the cell culture plate. The solvent used, e.g., DMSO, is used as the background control in the same concentration. […] Luminescence is measured after a five minute wait using a Packard TopCount NXT. The luciferase activity is obtained by integrating the relative luciferase units (RLU) of the first ten seconds after the start of measurement.

The nature of data set [4]: Dissolution of active substances from Tablet 3. Type of data set: physicochemical. The following applies: Tablet 3, three batches. The text has this:
This combination of active substances and excipients is then compressed with a suitable tablet press (e.g., Korsch EKO or Fette P1200) to form tablets. […]

Where “and” joins values, the source holds several entries; their conditions need not be identical. Equal entries are not always repeated.

These results are taken from US20050004193A1, “Pharmaceutical combination for the prevention or treatment of cardiovascular, cardiopulmonary, pulmonary, or renal diseases” (Boehringer Ingelheim International GmbH, priority 2003, published 2005).

As to `CCCc1nc2c(C)cc(-c3nc4ccccc4n3C)cc2n1Cc1ccc(-c2ccccc2C(=O)O)cc1` [Telmisartan, 4′-[2-n-propyl-4-methyl-6-(1-methylbenzimidazol-2-yl)benzimidazol-1-ylmethyl]biphenyl-2-carboxylic acid], the “MW (AlphaScreen signal)” value in data set [1] (conc. 3.00E-06 M) worked out at 720. In data set [1], the “direct activation of the PPARgamma-LBD / recruiting of the LXXLL peptide” value is listed as “does not result in any direct activation of the PPARgamma-LBD”. Also, in data set [2], the “displacement of the radioactive rosiglitazone from the binding pocket” value (from here on “displacement”) was “no concentration-dependent displacement of the radioactive rosiglitazone”. The “activation of the PPARgamma pathway in the PPARgamma reporter cell line” value in data set [3] is “particularly potent activation of the PPARgamma pathway”. Moreover, the “MW (luciferase activity)” value in data set [3] (conc. 3.00E-07 M, 24 hours) was determined as 760 RLU.
Take `CCCCC1=NC2(CCCC2)C(=O)N1Cc1ccc(-c2ccccc2-c2nnn[nH]2)cc1` [Irbesartan]: the “direct activation of the PPARgamma-LBD / recruiting of the LXXLL peptide” value in data set [1] is “does not result in any direct activation of the PPARgamma-LBD”. In addition, the results for the “MW (SPA signal, bound 3H-rosiglitazone)” value in data set [2] (conc. 1.00E-04 M) and in data set [2] (conc. 3.00E-07 M) were 510 and 810, respectively. The “displacement” value in data set [2] is recorded as “no concentration-dependent displacement of the radioactive rosiglitazone”.
As to `CCCc1nc2c(C)cc(-c3nc4ccccc4n3C)cc2n1Cc1ccc(-c2ccccc2C(=O)[O-])cc1.[Na+]` [telmisartan sodium salt], the “dissolution of telmisartan sodium salt from tablets” value in data set [4] (900 mL of 0.1 M phosphate buffer, pH 7.5, 30 minutes stirring, 75 rpm) is 92±1.5% and 96±1.8% and 100±1.0%.
Consider `NS(=O)(=O)c1cc2c(cc1Cl)NCNS2(=O)=O` [hydrochlorothiazide], for which the “dissolution of hydrochlorothiazide from tablets” value in data set [4] (900 mL of 0.1 M HCl, 100 rpm, 30 minutes) was 69±6.3% and 72±2.1% and 78±1.8%.
Turning to `CCCCc1nc(Cl)c(CO)n1Cc1ccc(-c2ccccc2-c2nn[nH]n2)cc1` [Losartan], the “direct activation of the PPARgamma-LBD / recruiting of the LXXLL peptide” value in data set [1] is reported as “does not result in any direct activation of the PPARgamma-LBD”. Besides, the “displacement” value in data set [2] was “no concentration-dependent displacement of the radioactive rosiglitazone”.
